{
  "source": "patent US20090203685A1",
  "about": "“ANTI-PROLIFERATIVE COMPOUNDS FROM A 3-ARYL-COUMARINE OR 3-ARYL-QUINOLIN-2-ONE AND USES THEREOF” (EOS (ETHICAL ONCOLOGY SCIENCE) S.P.A., priority 2006, published 2009)",
  "key": {"Jurkat": {"test_system": "Jurkat", "assay": "Cell cycle analysis, Jurkat", "format": "cell-based", "conditions": "500 nM", "protocol": "The cells are pelleted by gentle centrifugation 1200 rpm/5 min/4° C., then the supernatant is discarded and the cells are fixed with 1 mL of PBS/Ethanol 70% overnight at −20° C. The tubes are then centrifuged during 5 minutes at 1200 rpm and the supernatant is removed. The pellet is then re-suspended in 450 μL of PBS before 50 μL of RNAse (1 mg/mL) and 5 μL of propidium iodide (2 mg/mL) are added. Each tube is left 30 minutes at 37° C. and immediately analysed by flow cytometry after incubation.\nA biparametric dot plot representation FL3 peak vs FL3 integer is plotted and the cells located on the diagonal are gated and analysed on a histogram representing the number of cells as a function of the FL3 peak.\nTo assess the relative position of cursors defining relative proportion of cells in subG1, G1, S or G2 phase of the cell cycle, G1 and G2 peaks are to be defined first:\nThe G1 peak is defined as the major peak in absence of treatment (generally X=200);\nThe G2 peak is centered on the value which is twice the value of the G1 peak (generally X=400).\nCells in subG1 phase are plotted in the part of the histogram preceding the G1 peak (generally X<200) and cells in S phase are enclosed in the area between the G1 and G2 peaks.\nOn this graphic, subG1, G1, S and G2/M phases of the cell cycle can thus be defined.\n(§1) Viability and cell cycle profile, tested with compound (01), at 500 nM: […]"}, "[1]": {"biological_target": "T1, interaction between 6×His-Bcl-xL and GST-BF8 (Homo sapiens, UniProt Q07817)", "T1 construct": "made in house; host or cells: E. coli", "T1 sequence (Q07817 whole entry)": "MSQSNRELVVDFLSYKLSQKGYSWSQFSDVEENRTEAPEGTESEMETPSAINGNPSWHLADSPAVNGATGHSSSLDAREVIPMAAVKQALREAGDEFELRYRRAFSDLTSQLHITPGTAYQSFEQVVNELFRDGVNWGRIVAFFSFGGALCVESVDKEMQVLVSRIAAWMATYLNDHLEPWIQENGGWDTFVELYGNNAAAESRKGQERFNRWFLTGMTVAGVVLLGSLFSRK", "assay": "Pull down assay, Bcl-xL/BF8 in vitro interaction", "format": "binding", "conditions": "50 μM, 5% DMSO; Western blot", "protocol": "FIG. 3: Inhibition of the interaction between Bcl-xL and BF8, a peptide aptamer that targets the hydrophobic groove of BCL-2 family members. […]\nC+: 6×His-Bcl-xL captured by GST-BF8, in presence of 5% DMSO. (02): 6×His-Bcl-xL captured by GST-BF8, in presence of 50 μM of compound 02 (in 5% DMSO). (01): 6×His-Bcl-xL captured by GST-BF8, in presence of 50 μM of compound 01 (in 5% DMSO).\nA peptide aptamer (dubbed BF8) has been selected against the anti-apoptotic protein Bfl1, member of the BCL-2 family. […] Two lines of evidence indicate that BF8 binds the hydrophobic groove of anti-apoptotic BCL-2-like proteins. First, the amino-acid sequence of its variable region bears similarities with the sequence of the BH3 domains of pro-apoptotic members of the BCL-2 family (such as Bak or Bax), known to bind the anti-apoptotic proteins via this hydrophobic groove. Second, BF8 no longer binds a mutated variant of Bfl-1 that bears an amino-acid substitution within the said hydrophobic groove.\nA Bcl-xL/BF8 in vitro interaction assay was developed to examine the capacity of the compounds of the invention to disrupt this interaction by competition with the peptide aptamer. 6×His-Bcl-xL and GST-BF8 recombinant fusion proteins were expressed in E. coli and purified using affinity chromatography. […]"}, "[2]": {"assay": "Viability (propidium iodide staining), MRC5", "format": "cell-based", "conditions": "human, MRC5 non-transformed fibroblasts, 500 nM", "protocol": "(§2) Propidium iodide (PI) cannot normally cross the cell membrane; it is thus excluded by viable cells but not from dying or dead cells, having a damaged membrane, where it intercalates into double-stranded nucleic acids and fluoresces when excited at 488 nm.\n(§3) The cells are pelleted by gentle centrifugation 1200 rpm/5 min/4° C., then the supernatant is discarded and replaced by 1 mL of fresh medium. One hundred microliters of propidium iodide (40 μg/mL) are added to 400 μL of the cell suspension in a FACS tube and viability is measured by flow cytometry as the percentage of cells whose fluorescence recorded on FL-3 channel is comprised between 0 and 2.\nas §1"}, "MRC5": {"test_system": "MRC5", "assay": "Viability (propidium iodide staining), MRC5", "format": "cell-based", "conditions": "500 nM", "protocol": "as §2, §3, §1"}, "[3]": {"assay": "Viability (propidium iodide staining), U937", "format": "cell-based", "conditions": "human, U937 cells (myeloid), 500 nM", "protocol": "as §2, §3, §1"}},
  "data": [
    {"molecule": "COc1cc(NC(=S)NC(=O)/C=C/c2ccco2)ccc1-c1cc2ccccc2oc1=O", "note": "[Compound 01, (2E)-3-(2-furyl)-N-({[3-methoxy-4-(2-oxo-2H-chromen-3-yl)phenyl]amino}carbonothioyl)acrylamide]", "values": [
      {"measurement": "Cell cycle profile - 72 h", "setting": "Jurkat", "result": "Strong sub-G1"},
      {"measurement": "Inhibition of the in vitro interaction between 6×His-Bcl-xL and GST-BF8", "setting": "[1]", "result": "inhibit"},
      {"measurement": "viability at 48 h, 0.5 µM", "setting": "[2]; 48 h", "result": 94, "unit": "%"},
      {"measurement": "viability at 72 h, 0.5 µM", "setting": "[2]; 72 h", "result": 89, "unit": "%"},
      {"measurement": "Effect on control non-transformed cells (MRC5)", "setting": "MRC5", "result": "unaffected"},
      {"measurement": "viability at 48 h, 0.5 µM", "setting": "[3]; 48 h", "result": 25, "unit": "%"},
      {"measurement": "viability at 72 h, 0.5 µM", "setting": "[3]; 72 h", "result": 6, "unit": "%"}
    ]}
  ]
}
